Earlier results in patent US20170280761A1, “METHOD TO CONCENTRATE APOA-1 MIMETIC PEPTIDES TRANSGENICALLY EXPRESSED IN PLANTS” (The Regents of the University of California, priority 2014, published 2017).

Experiments:
ovarian cancer = settings: for levels of lysophosphatidic acid (LPA) / tumor growth: administered either orally or by injection
[1] = system: epithelial ovarian cancer cells
colon cancer = settings: 4F added to mouse chow
C57BL/6J-Apc Min/+ mice = settings: 4F in mouse chow
[2] = system: Hypoxia-inducible factor-1 (HIF-1); settings: addition of the 4F peptide
[3] = biological target: T1, scavenger receptor A (SR-A) (Homo sapiens, UniProt P21757)
T1 sequence (P21757 1-451): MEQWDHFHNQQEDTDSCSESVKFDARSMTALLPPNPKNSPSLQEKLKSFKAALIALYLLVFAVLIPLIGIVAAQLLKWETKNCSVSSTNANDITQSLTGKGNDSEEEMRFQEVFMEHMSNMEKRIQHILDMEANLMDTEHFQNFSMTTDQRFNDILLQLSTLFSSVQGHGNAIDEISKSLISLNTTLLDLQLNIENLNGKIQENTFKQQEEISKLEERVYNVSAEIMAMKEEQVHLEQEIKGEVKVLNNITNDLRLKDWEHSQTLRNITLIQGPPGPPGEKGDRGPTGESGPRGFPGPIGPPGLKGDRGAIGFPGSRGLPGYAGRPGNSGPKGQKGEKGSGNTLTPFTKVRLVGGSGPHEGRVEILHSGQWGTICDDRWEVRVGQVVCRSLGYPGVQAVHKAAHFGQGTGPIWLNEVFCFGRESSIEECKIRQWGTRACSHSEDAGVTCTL

tumor invasiveness = settings: administration of the 4F peptide
[4] = mouse, in vivo

Row | inhibition of SR-A [3] | Sequence | levels of lysophosphatidic acid (LPA) (ovarian cancer) | tumor growth (ovarian cancer) | expression of HIF-1 alpha in mouse ovarian tumor tissues (ovarian cancer; administration of the 4F peptide) | antioxidant enzyme manganese superoxide dismutase (MnSOD) [1] | proliferation and ability to form tumors [1] | plasma LPA levels (colon cancer) | tumor angiogenesis (colon cancer) | tumor burden (colon cancer) | LPA levels (C57BL/6J-Apc Min/+ mice) | number and size of tumors in the intestinal tract (C57BL/6J-Apc Min/+ mice) | HIF-1 alpha induced in vitro by LPA [2] | tumor invasiveness (tumor invasiveness) | amount of intact 6F peptide found in the small intestine [4] | intact 6F peptide in the plasma [4] | intact 6F peptide in the small intestine [4]
1 | potent inhibitor | DWFKAFYDKVAEKFKEAF (Synthetic recombinantly expressed peptide) [4F] | decreased | decreased | markedly decreased | upregulated | inhibited | decreased | decreased | decreased | decreased | reduced | decreased | inhibited |  |  | 
2 |  | DWLKAFYDKFFEKFKEFF (Synthetic recombinantly expressed peptide) [6F] |  |  |  |  |  |  |  |  |  |  |  |  | 15.6±7.4 µg 6F per 200 mg small intestine | not in the plasma | found
3 |  | DWLKAFYDKVFEKFKEFF (Synthetic recombinantly expressed peptide) [5F] | decreased | decreased |  |  |  |  |  |  |  |  |  |  |  |  | 
